Key:
Assay type in all cases: functional
[1] = tested on: SN12C; experiment: Growth inhibition of human SN12C cells after 48 hrs by sulforhodamine B assay
[2] = tested on: OVCAR-3; experiment: Growth inhibition of human OVCAR3 cells after 48 hrs by sulforhodamine B assay; conditions: OVCAR-3, 48 h
[3] = tested on: SK-MEL-2; experiment: Growth inhibition of human SK-MEL-2 cells after 48 hrs by sulforhodamine B assay; conditions: SK-MEL-2, 48 h
[4] = tested on: KM12; experiment: Growth inhibition of human KM12 cells after 48 hrs by sulforhodamine B assay; conditions: KM12, 48 h
[5] = tested on: 786-0; experiment: Growth inhibition of human 786-0 cells after 48 hrs by sulforhodamine B assay; conditions: 786-0, 48 h
[6] = tested on: SK-MEL-5; experiment: Growth inhibition of human SK-MEL-5 cells after 48 hrs by sulforhodamine B assay; conditions: SK-MEL-5, 48 h
[7] = tested on: MDA-MB-468; experiment: Growth inhibition of human MDA-MB-468 cells after 48 hrs by sulforhodamine B assay; conditions: MDA-MB-468, 48 h
[8] = tested on: NCI-H226; experiment: Growth inhibition of human NCI-H226 cells after 48 hrs by sulforhodamine B assay; conditions: NCI-H226, 48 h
[9] = tested on: MDA-MB-231; experiment: Growth inhibition of human MDA-MB-231/ATCC cells after 48 hrs by sulforhodamine B assay; conditions: MDA-MB-231, 48 h
[10] = tested on: ACHN; experiment: Growth inhibition of human ACHN cells after 48 hrs by sulforhodamine B assay
[11] = tested on: BT-549; experiment: Growth inhibition of human BT549 cells after 48 hrs by sulforhodamine B assay; conditions: BT-549, 48 h
[12] = tested on: HCC 2998; experiment: Growth inhibition of human HCC2998 cells after 48 hrs by sulforhodamine B assay; conditions: HCC 2998, 48 h
[13] = tested on: TK-10; experiment: Growth inhibition of human TK10 cells after 48 hrs by sulforhodamine B assay; conditions: TK-10, 48 h
[14] = tested on: NCI-H522; experiment: Growth inhibition of human NCI-H522 cells after 48 hrs by sulforhodamine B assay; conditions: NCI-H522, 48 h
[15] = tested on: HT-29; experiment: Growth inhibition of human HT-29 cells after 48 hrs by sulforhodamine B assay; conditions: HT-29, 48 h
[16] = tested on: RXF 393; experiment: Growth inhibition of human RXF393 cells after 48 hrs by sulforhodamine B assay; conditions: RXF 393, 48 h
[17] = tested on: COLO 205; experiment: Growth inhibition of human COLO205 cells after 48 hrs by sulforhodamine B assay; conditions: COLO 205, 48 h
[18] = tested on: HOP-62; experiment: Growth inhibition of human HOP62 cells after 48 hrs by sulforhodamine B assay; conditions: HOP-62, 48 h
[19] = tested on: MOLT-4; experiment: Growth inhibition of human MOLT4 cells after 48 hrs by sulforhodamine B assay; conditions: MOLT-4, 48 h
[20] = tested on: NCI-H322M; experiment: Growth inhibition of human NCI-H322M cells after 48 hrs by sulforhodamine B assay
[21] = tested on: IGROV-1; experiment: Growth inhibition of human IGROV1 cells after 48 hrs by sulforhodamine B assay; conditions: IGROV-1, 48 h
[22] = tested on: A498; experiment: Growth inhibition of human A498 cells after 48 hrs by sulforhodamine B assay; conditions: A498, 48 h
[23] = tested on: CAKI-1; experiment: Growth inhibition of human Caki1 cells after 48 hrs by sulforhodamine B assay; conditions: CAKI-1, 48 h
[24] = tested on: LOX IMVI; experiment: Growth inhibition of human LOXIMVI cells after 48 hrs by sulforhodamine B assay
[25] = tested on: T47D; experiment: Growth inhibition of human T47D cells after 48 hrs by sulforhodamine B assay
[26] = tested on: M14; experiment: Growth inhibition of human M14 cells after 48 hrs by sulforhodamine B assay; conditions: M14, 48 h
[27] = tested on: OVCAR-4; experiment: Growth inhibition of human OVCAR4 cells after 48 hrs by sulforhodamine B assay; conditions: OVCAR-4, 48 h
[28] = tested on: U-251; experiment: Growth inhibition of human U251 cells after 48 hrs by sulforhodamine B assay; conditions: U-251, 48 h
[29] = tested on: HCT-15; experiment: Growth inhibition of human HCT15 cells after 48 hrs by sulforhodamine B assay; conditions: HCT-15, 48 h
[30] = tested on: SW-620; experiment: Growth inhibition of human SW620 cells after 48 hrs by sulforhodamine B assay; conditions: SW-620, 48 h
[31] = tested on: NCI/ADR-RES; experiment: Growth inhibition of human NCI/ADR-RES cells after 48 hrs by sulforhodamine B assay
[32] = tested on: UACC-62; experiment: Growth inhibition of human UACC62 cells after 48 hrs by sulforhodamine B assay; conditions: UACC-62, 48 h
[33] = read-out: pLC50 (the source's name) (converted)

## COc1cc(/C=C/c2ccc3c(c2)C[C@@H]2C(C)(C)[C@H](O)CC[C@@]2(C)O3)cc(O)c1C/C=C(\C)CCC=C(C)C
[1]
  GI50: 18.2 µM
  LC50: 70.8 µM
[1]; read-out: pTGI (converted)
  TGI: 36.3 µM
[2]
  GI50: 17.4 µM
  LC50: 66.1 µM
[2]; read-out: pTGI (converted)
  TGI: 33.9 µM
[3]
  GI50: 15.8 µM
  LC50: 81.3 µM
[3]; read-out: pTGI (converted)
  TGI: 35.5 µM
[4]
  GI50: 2.63 µM
  LC50: 21.9 µM
[4]; read-out: pTGI (converted)
  TGI: 6.46 µM
[5]
  GI50: 2.95 µM
[5]; [33]
  CC50: 42.7 µM
[5]; read-out: pTGI (converted)
  TGI: 12 µM
[6]
  GI50: 8.71 µM
  LC50: 49 µM
[6]; read-out: pTGI (converted)
  TGI: 21.4 µM
[7]
  GI50: 11 µM
  LC50: 72.4 µM
[7]; read-out: pTGI (converted)
  TGI: 28.2 µM
[8]
  GI50: 22.9 µM
  LC50: > 100 µM
[8]; read-out: pTGI (converted)
  TGI: 56.2 µM
[9]
  GI50: 10 µM
[9]; [33]
  CC50: 95.5 µM
[9]; read-out: pTGI (converted)
  TGI: 30.9 µM
[10]
  GI50: 20 µM
  LC50: > 100 µM
[10]; read-out: pTGI (converted)
  TGI: 46.8 µM
[11]
  GI50: 5.01 µM
  LC50: 49 µM
[11]; read-out: pTGI (converted)
  TGI: 17.8 µM
[12]
  GI50: 15.8 µM
  LC50: 85.1 µM
[12]; read-out: pTGI (converted)
  TGI: 37.2 µM
[13]
  GI50: 29.5 µM
  LC50: > 100 µM
[13]; read-out: pTGI (converted)
  TGI: 79.4 µM
[14]
  GI50: 17.8 µM
  LC50: 66.1 µM
[14]; read-out: pTGI (converted)
  TGI: 33.9 µM
[15]
  GI50: 1.95 µM
  LC50 (concentration killing 50% of cells): 23.4 µM
[15]; read-out: pTGI (converted)
  TGI: 5.01 µM
[16]
  GI50: 1.29 µM
  LC50 (50% lethal concentration): 6.61 µM
[16]; read-out: pTGI (converted)
  TGI: 2.88 µM
[17]
  GI50: 3.63 µM
  LC50: 49 µM
[17]; read-out: pTGI (converted)
  TGI: 11 µM
[18]
  GI50: 6.17 µM
  LC50: 52.5 µM
[18]; read-out: pTGI (converted)
  TGI: 20 µM
[19]
  GI50: 5.01 µM
  LC50: > 100 µM
[19]; read-out: pTGI (converted)
  TGI: 38.9 µM
[20]
  GI50: 26.3 µM
  LC50: > 100 µM
[20]; read-out: pTGI (converted)
  TGI: 87.1 µM
[21]
  GI50: 14.5 µM
  LC50: 70.8 µM
[21]; read-out: pTGI (converted)
  TGI: 31.6 µM
[22]
  GI50: 46.8 µM
  LC50: > 100 µM
[22]; read-out: pTGI (converted)
  TGI: > 100 µM
[23]
  GI50: 5.37 µM
  LC50: 67.6 µM
[23]; read-out: pTGI (converted)
  TGI: 20 µM
[24]
  GI50: 3.31 µM
  LC50: 37.2 µM
[24]; read-out: pTGI (converted)
  TGI: 11.5 µM
[25]
  GI50: 20.9 µM
  LC50: > 100 µM
[25]; read-out: pTGI (converted)
  TGI: 58.9 µM
[26]
  GI50: 13.8 µM
  LC50: 56.2 µM
[26]; read-out: pTGI (converted)
  TGI: 27.5 µM
[27]
  GI50: 20.9 µM
  LC50: > 100 µM
[27]; read-out: pTGI (converted)
  TGI: 83.2 µM
[28]
  GI50: 5.62 µM
  LC50: 63.1 µM
[28]; read-out: pTGI (converted)
  TGI: 22.4 µM
[29]
  GI50: 6.31 µM
  LC50: 58.9 µM
[29]; read-out: pTGI (converted)
  TGI: 20.9 µM
[30]
  GI50: 11.7 µM
  LC50: 53.7 µM
[30]; read-out: pTGI (converted)
  TGI: 25.1 µM
[31]
  GI50: 21.4 µM
  LC50: > 100 µM
[31]; read-out: pTGI (converted)
  TGI: 51.3 µM
[32]
  GI50: 12.9 µM
  LC50 (50% lethal concentration): 70.8 µM
[32]; read-out: pTGI (converted)
  TGI: 30.2 µM
